From patent US8143243B2, “Compounds for the treatment of hepatitis C” (Bristol-Myers Squibb Company, priority 2007, dated 2012)
pEC50, pIC50: −log10 of the molar value.

Assays:
HCV replicon cells = assay: HCV replicon FRET / luciferase assay; type: cell-based; conditions: Hepatitis C virus
Excerpt: FRET Assay Preparation. To perform the HCV FRET screening assay, 96-well cell culture plates were used. The FRET peptide (Anaspec, Inc.) (Taliani et al., Anal. Biochem. 1996, 240, 60-67) contains a fluorescence donor, EDANS, near one end of the peptide and an acceptor, DABCYL, near the other end. The fluorescence of the peptide is quenched by […] resonance energy transfer (RET) between the donor and the acceptor, but as the NS3 protease cleaves the peptide the products are released from RET quenching and the fluorescence of the donor becomes apparent. The assay reagent was made as follows: 5× cell Luciferase cell culture lysis reagent from Promega (#E153A) diluted to 1× with dH2O, NaCl added to 150 mM final, the FRET peptide diluted to 20 μM final from a 2 mM stock.
To prepare plates, HCV replicon cells, with or without a Renilla luciferase reporter gene, were trypsinized and placed into each well of a 96-well plate with titrated test compounds added in columns 3 through 12; columns 1 and 2 contained a control compound (HCV protease inhibitor), and the bottom row contained cells without compound. The plates were then placed in a CO2 incubator at 37° C.
Assays. Subsequent to addition of the test compounds described above (FRET Assay Preparation), at various times the plate was removed and Alamar blue solution (Trek Diagnostics, #00-100) was added per well as a measure of cellular toxicity. After reading in a Cytoflour 4000 instrument (PE Biosystems), plates were rinsed with PBS and then used for FRET assay by the addition of 30 ul of the FRET peptide assay reagent described above (FRET Assay Preparation) per well. The plate was then placed into the Cytoflour 4000 instrument which had been set to 340 excite/490 emission, automatic mode for 20 cycles and the plate read in a kinetic mode. Typically, the signal to noise using an endpoint analysis after the reads was at least three-fold. Alternatively, after Alamar blue reading, plates were rinsed with PBS, 50 ul of DMEM (high glucose) without phenol red was added and plates were then used for luciferase assay using the Promega Dual-Glo Luciferase Assay System.
Compound analysis was determined by quantification of the relative HCV replicon inhibition and the relative cytotoxicity values. To calculate cytoxicity values, the average Alamar Blue fluorescence signals from the control wells were set as 100% non-toxic. The individual signals in each of the compound test wells were then divided by the average control signal and multiplied by 100% to determine […]. To calculate the HCV replicon inhibition values, an average background value was obtained from the two wells containing the highest amount of HCV protease inhibitor at the end of the assay period. These numbers were similar to those obtained from naïve Huh-7 cells.
The background numbers were then subtracted from the average signal obtained from the control wells and this number was used as 100% activity. The individual signals in each of the compound test wells were then divided by the averaged control values after background subtraction and multiplied by 100% to determine percent activity. EC50 values for a protease inhibitor titration were calculated as the concentration which caused a 50% reduction in FRET or luciferase activity. The two numbers generated for the compound plate, percent cytoxicity and percent activity were used to determine compounds of interest for further analysis.

HCV NS5B = target: T1, HCV NS5B (Hepatitis C virus genotype 1b, UniProt Q9WMX2); assay: HCV NS5B RdRp enzyme assay (standard / modified); type: biochemical
T1 construct: The protein was expressed with an 18 amino acid C-terminal truncation to enhance the solubility; made in house; host or cells: E. coli BL21 (DE3)
T1 sequence (Q9WMX2 2420-2992): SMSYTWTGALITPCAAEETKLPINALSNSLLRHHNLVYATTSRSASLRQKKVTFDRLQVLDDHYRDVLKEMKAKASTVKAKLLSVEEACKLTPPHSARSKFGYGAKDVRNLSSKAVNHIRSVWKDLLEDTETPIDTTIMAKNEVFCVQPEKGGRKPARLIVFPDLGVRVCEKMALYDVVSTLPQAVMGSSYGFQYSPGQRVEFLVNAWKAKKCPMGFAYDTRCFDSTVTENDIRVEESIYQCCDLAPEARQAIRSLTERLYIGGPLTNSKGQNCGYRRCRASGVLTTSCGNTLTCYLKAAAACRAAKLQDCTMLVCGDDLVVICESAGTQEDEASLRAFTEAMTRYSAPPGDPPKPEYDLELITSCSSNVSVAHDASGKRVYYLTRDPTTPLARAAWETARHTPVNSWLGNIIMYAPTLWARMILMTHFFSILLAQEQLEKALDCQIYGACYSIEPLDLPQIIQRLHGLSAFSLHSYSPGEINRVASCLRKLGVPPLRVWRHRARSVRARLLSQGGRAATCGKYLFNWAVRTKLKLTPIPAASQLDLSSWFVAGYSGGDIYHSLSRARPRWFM
Description: HCV NS5B RdRp cloning, expression, and purification. The cDNA encoding the NS5B protein of HCV, genotype 1b, was cloned into the pET21a expression vector. The protein was expressed with an 18 amino acid C-terminal truncation to enhance the solubility. The E. coli competent cell line BL21 (DE3) was used for expression of the protein. Cultures were grown at 37° C. for ˜4 hours until the cultures reached an optical density of 2.0 at 600 nm. The cultures were cooled to 20° C. and induced with 1 mM IPTG. Fresh ampicillin was added to a final concentration of 50 μg/ml and the cells were grown overnight at 20° C.
Cell pellets (3 L) were lysed for purification to yield 15-24 mgs of purified NS5B. The lysis buffer consisted of 20 mM Tris-HCl, pH 7.4, 500 mM NaCl, 0.5% triton X-100, 1 mM DTT, 1 mM EDTA, 20% glycerol, 0.5 mg/ml lysozyme, 10 mM MgCl2, 15 ug/ml deoxyribonuclease I, and Complete TM protease inhibitor tablets (Roche). After addition of the lysis buffer, frozen cell pellets were resuspended using a tissue homogenizer. To reduce the viscosity of the sample, aliquots of the lysate were sonicated on ice using a microtip attached to a Branson sonicator. The sonicated lysate was centrifuged at 100,000×g for 1 hr at 4° C. and filtered through a 0.2 μm filter unit (Corning).
The protein was purified using three sequential chromatography steps: Heparin sepharose CL-6B, polyU sepharose 4B, and Hitrap SP sepharose (Pharmacia). The chromatography buffers were identical to the lysis buffer but contained no lysozyme, deoxyribonuclease I, MgCl2 or protease inhibitor and the NaCl concentration of the buffer was adjusted according to the requirements for charging the protein onto the column. Each column was eluted with a NaCl gradient which varied in length from 5-50 column volumes depending on the column type. After the final chromatography step, the resulting purity of the enzyme is >90% based on SDS-PAGE analysis. The enzyme was aliquoted and stored at −80° C.
Standard HCV NS5B RdRp enzyme assay. HCV RdRp genotype 1b assays were run in a final volume of 60 μl in 96 well plates (Costar 3912). The assay buffer is composed of 20 mM Hepes, pH 7.5, 2.5 mM KCl, 2.5 mM MgCl2, 1 mM DTT, 1.6 U RNAse inhibitor (Promega N2515), 0.1 mg/ml BSA (Promega R3961), and 2% glycerol. All compounds were serially diluted (3-fold) in DMSO and diluted further in water such that the final concentration of DMSO in the assay was 2%. HCV RdRp genotype 1b enzyme was used at a final concentration of 28 nM. A polyA template was used at 6 nM, and a biotinylated oligo-dT12 primer was used at 180 nM final concentration. Template was obtained commercially (Amersham 27-4110). Biotinylated primer was prepared by Sigma Genosys. 3H-UTP was used at 0.6 μCi (0.29 μM total UTP). Reactions were initiated by the addition of enzyme, incubated at 30° C. for 60 min, and stopped by adding 25 μl of 50 mM EDTA containing SPA beads (4 μg/μl, Amersham RPNQ 0007). Plates were read on a Packard Top Count NXT after >1 hr incubation at room temperature.
Modified HCV NS5B RdRp enzyme assay. A modified enzyme assay was performed essentially as described for the standard enzyme assay except for the following: The biotinylated oligo dT12 primer was precaptured on streptavidin-coated SPA beads by mixing primer and beads in assay buffer and incubating at room temperature for one hour. Unbound primer was removed after centrifugation. The primer-bound beads were resuspended in 20 mM Hepes buffer, pH 7.5 and used in the assay at final concentrations of 20 nM primer and 0.67 μg/μl beads. Order of addition in the assay: enzyme (14 nM) was added to diluted compound followed by the addition of a mixture of template (0.2 nM), 3H-UTP (0.6 μCi, 0.29 μM), and primer-bound beads, to initiate the reaction; concentrations given are final. Reactions were allowed to proceed for 4 hours at 30° C.
IC50 values for compounds were determined using seven different [I]. […]

Compound	pEC50 (HCV replicon cells)	pIC50 (HCV NS5B)
COc1ccc2c(c1)C=C(c1c(C(=O)N3C4CCC3CN(C)C4)cnn1C)Cn1c-2c(C2CCCCC2)c2ccc(C(=O)NS(=O)(=O)N(C)C)cc21	6.30 to 9.00	6.30 to 9.00
COc1ccc2c(c1)C=C(c1c(C(=O)N3C4CCC3CN(C)C4)cnn1C)Cn1c-2c(C2CCCCC2)c2ccc(C(=O)O)cc21	6.30 to 9.00	< 6.30
COc1ccc2c(c1)C=C(c1c(C(=O)N3[C@@H]4CC[C@H]3C[C@@](C)(O)C4)cnn1C)Cn1c-2c(C2CCCCC2)c2ccc(C(=O)NS(=O)(=O)N3CCOCC3)cc21	6.30 to 9.00	6.30 to 9.00
COc1ccc2c(c1)C=C(c1c(C(=O)N3C4COCC3COC4)cnn1C)Cn1c-2c(C2CCCCC2)c2ccc(C(=O)NS(=O)(=O)N3CCOCC3)cc21	6.30 to 9.00	6.30 to 9.00
COc1ccc2c(c1)C=C(c1c(C(=O)N3[C@@H]4CC[C@H]3C[C@@](C)(O)C4)cnn1C)Cn1c-2c(C2CCCCC2)c2ccc(C(=O)NS(=O)(=O)C(C)C)cc21	6.30 to 9.00	6.30 to 9.00
COc1ccc2c(c1)C=C(c1c(C(=O)N3C4COCC3COC4)cnn1C)Cn1c-2c(C2CCCCC2)c2ccc(C(=O)NS(=O)(=O)C(C)C)cc21	6.30 to 9.00	6.30 to 9.00
COc1ccc2c(c1)C=C(c1c(C(=O)N3C4CCC3CN(C)C4)cnn1C)Cn1c-2c(C2CCCCC2)c2ccc(C(=O)NS(=O)(=O)C(C)C)cc21	6.30 to 9.00	6.30 to 9.00
COc1ccc2c(c1)C=C(c1c(C(=O)N3CC4CCC(C3)N4C)cnn1C)Cn1c-2c(C2CCCCC2)c2ccc(C(=O)NS(=O)(=O)C(C)C)cc21	6.30 to 9.00	6.30 to 9.00
CCC(C)S(=O)(=O)NC(=O)c1ccc2c(C3CCCCC3)c3n(c2c1)CC(c1c(C(=O)N2C4CCC2CN(C)C4)cnn1C)=Cc1cc(OC)ccc1-3 (stereo not drawn)	6.30 to 9.00	6.30 to 9.00
CCC(C)S(=O)(=O)NC(=O)c1ccc2c(C3CCCCC3)c3n(c2c1)CC(c1c(C(=O)N2C4CCCC2COC4)cnn1C)=Cc1cc(OC)ccc1-3 (stereo not drawn)	6.30 to 9.00	6.30 to 9.00
CCC(C)S(=O)(=O)NC(=O)c1ccc2c(C3CCCCC3)c3n(c2c1)CC(c1c(C(=O)N2C4COCC2COC4)cnn1C)=Cc1cc(OC)ccc1-3 (stereo not drawn)	6.30 to 9.00	6.30 to 9.00
COc1ccc2c(c1)C=C(c1c(C(=O)N3C4COCC3COC4)cnn1C)Cn1c-2c(C2CCCCC2)c2ccc(C(=O)NS(=O)(=O)C3CCCC3)cc21	6.30 to 9.00	6.30 to 9.00
COc1ccc2c(c1)C=C(c1c(C(=O)N3C4CCC3CN(C)C4)cnn1C)Cn1c-2c(C2CCCCC2)c2ccc(C(=O)NS(=O)(=O)C3CCCC3)cc21	6.30 to 9.00	6.30 to 9.00
COc1ccc2c(c1)C=C(c1c(C(=O)N3C4CCC3CN(C)C4)cnn1C)Cn1c-2c(C2CCCCC2)c2ccc(C(=O)NS(=O)(=O)CC(C)C)cc21	6.30 to 9.00	6.30 to 9.00
COc1ccc2c(c1)C=C(c1c(C(=O)N3C4CCCC3COC4)cnn1C)Cn1c-2c(C2CCCCC2)c2ccc(C(=O)NS(=O)(=O)CC(C)C)cc21	6.30 to 9.00	6.30 to 9.00
COc1ccc2c(c1)C=C(c1c(C(=O)N3C4COCC3COC4)cnn1C)Cn1c-2c(C2CCCCC2)c2ccc(C(=O)NS(=O)(=O)CC(C)C)cc21	6.30 to 9.00	6.30 to 9.00
COc1ccc2c(c1)C=C(c1c(C(=O)N3C4CCC3CN(C)C4)cnn1C)Cn1c-2c(C2CCCCC2)c2ccc(C(=O)NS(=O)(=O)C3CCC3)cc21	6.30 to 9.00	6.30 to 9.00
COc1ccc2c(c1)C=C(c1c(C(=O)N3C4CCCC3COC4)cnn1C)Cn1c-2c(C2CCCCC2)c2ccc(C(=O)NS(=O)(=O)C3CCC3)cc21	6.30 to 9.00	6.30 to 9.00
COc1ccc2c(c1)C=C(c1c(C(=O)N3C4CCCC3COC4)cnn1C)Cn1c-2c(C2CCCCC2)c2ccc(C(=O)NS(=O)(=O)C3CCCC3)cc21	6.30 to 9.00	6.30 to 9.00
COc1ccc2c(c1)C=C(c1c(C(=O)N3C4COCC3COC4)cnn1C)Cn1c-2c(C2CCCCC2)c2ccc(C(=O)NS(=O)(=O)C3CCC3)cc21	6.30 to 9.00	6.30 to 9.00
COc1ccc2c(c1)C=C(c1sccc1C(=O)N1C3CCC1CN(C)C3)Cn1c-2c(C2CCCCC2)c2ccc(C(=O)NS(=O)(=O)C(C)C)cc21	6.30 to 9.00	6.30 to 9.00
COc1ccc2c(c1)C=C(c1c(C(=O)N3C4CCC3CN(C)C4)cnn1C(C)C)Cn1c-2c(C2CCCCC2)c2ccc(C(=O)NS(=O)(=O)C(C)C)cc21	6.30 to 9.00	6.30 to 9.00
COc1ccc2c(c1)C=C(c1c(C(=O)N3CC4CCC(C3)N4C)cnn1C(C)C)Cn1c-2c(C2CCCCC2)c2ccc(C(=O)NS(=O)(=O)C(C)C)cc21	6.30 to 9.00	6.30 to 9.00
COc1ccc2c(c1)C=C(c1c(C(=O)N3C4COCC3COC4)cnn1C(C)C)Cn1c-2c(C2CCCCC2)c2ccc(C(=O)NS(=O)(=O)C(C)C)cc21	6.30 to 9.00	6.30 to 9.00
COc1ccc2c(c1)C=C(c1c(C(=O)N3C4COCC3COC4)cnn1C(C)C)Cn1c-2c(C2CCCCC2)c2ccc(C(=O)NS(=O)(=O)CC(C)C)cc21	6.30 to 9.00	6.30 to 9.00
COc1ccc2c(c1)C=C(c1c(C(=O)N3[C@@H]4CC[C@H]3CN(C)C4)cnn1C(C)C)Cn1c-2c(C2CCCCC2)c2ccc(C(=O)NS(=O)(=O)CC(C)C)cc21	6.30 to 9.00	6.30 to 9.00
COc1ccc2c(c1)C=C(c1c(C(=O)N3C[C@H]4CC[C@@H](C3)N4C)cnn1C(C)C)Cn1c-2c(C2CCCCC2)c2ccc(C(=O)NS(=O)(=O)CC(C)C)cc21	6.30 to 9.00	6.30 to 9.00
